We go through 6 compounds from patent US20220195455A1, “DELIVERY OF CRISPR/MCAS9 THROUGH EXTRACELLULAR VESICLES FOR GENOME EDITING” (University of Georgia Research Foundation, Inc., priority 2019, published 2022).

One experiment concerns PC3 cells. Put plainly: Lipid raft disruption, cholesterol staining. It is filed as cell-based, human. To be noted: 1 μM, 24 h.
The next experiment deals with PC3 or DU145 cells. Description: Lipid raft disruption, Src kinase in EVs by immunoblotting. It is filed as cell-based, human. To be noted: 0-1 μM, 24 h. Background: Immunoblotting shows a protein as a band on a membrane.
For experiment [1], the system named is DU145, NIH 3T3, SYF1, 22Rv1 cells. Description: Encapsulation of Src family kinase variants into EVs of transduced cells (Western blot, EVs vs TCL). Format: cell-based. To be noted: for levels of Fyn kinase in EVs: in comparison with Fyn(WT). The method, then:
The transfected cells were grown in exosome-free FBS medium and EVs were isolated from the conditioned medium. […] Ten μg of protein from EVs or TCL were loaded. Src protein levels were quantified by Image J software. […] Data were expressed as mean±SEM, ** p<0.01; *** p<0.001. […] The transduced cells were grown in EVs/exosome-free FBS medium with (Lane 4-6 and 10-12) or without (Lane 1-3 and 7-9) 50 μM myristic acid-azide (an analog of myristic acid). The myristoylated proteins from either EVs or TCL were detected using Click chemistry. Ten μg of protein from EVs or TCL were loaded.
EVs were isolated from conditioned medium by sequential ultracentrifugation. […] Ten μg of protein from EVs or TCL were loaded. […] Coomassie staining was used to show equivalent loading of samples. The Src expression level was quantified by Image J software. Data are expressed as mean±SEM, * p<0.05; ** p<0.01; *** p<0.001.
The transduced cells were grown in EVs/exosome-free medium for 24 h and EVs were isolated from the conditioned medium. Ten μg of protein from extracellular vesicles (EVs) or total cell lysates (TCL) were loaded. […] Data are expressed as mean±SEM. * p<0.05; **** p<0.0001; NS: Not significant.
The transduced cells were grown in exosome-free FBS medium. EVs were collected from the conditioned cell culture medium. Expression levels of Src in extracellular vesicles (EVs) and total cell lysates (TCL) from the transduced cells were evaluated by Western blotting. 10 μg of protein from Exo or TCL were loaded. […] The Src protein was quantified by Image J software. […] Data are expressed as mean±SEM. ** p<0.01.
To isolate EVs from the cell culture medium, the cell lines were grown in ATCC recommended medium in a 150-mm petri-dish. […] The size, zeta potential, and concentration of EVs were measured by nanoparticle tracking analysis (NTA, Particle Metrix, Germany) with ZetaView software for data record and analysis.
The total cell lysate and EVs dissolved in RIPA buffer were subjected to the standard immunoblotting analysis. […] The band intensity was quantified by Image J software.

The next experiment addresses T1, full length NMT1 protein (Homo sapiens, UniProt P30419).
T1 construct: Km and Vmax catalyzed by full length NMT1 protein were calculated
T1 sequence (P30419 1-496): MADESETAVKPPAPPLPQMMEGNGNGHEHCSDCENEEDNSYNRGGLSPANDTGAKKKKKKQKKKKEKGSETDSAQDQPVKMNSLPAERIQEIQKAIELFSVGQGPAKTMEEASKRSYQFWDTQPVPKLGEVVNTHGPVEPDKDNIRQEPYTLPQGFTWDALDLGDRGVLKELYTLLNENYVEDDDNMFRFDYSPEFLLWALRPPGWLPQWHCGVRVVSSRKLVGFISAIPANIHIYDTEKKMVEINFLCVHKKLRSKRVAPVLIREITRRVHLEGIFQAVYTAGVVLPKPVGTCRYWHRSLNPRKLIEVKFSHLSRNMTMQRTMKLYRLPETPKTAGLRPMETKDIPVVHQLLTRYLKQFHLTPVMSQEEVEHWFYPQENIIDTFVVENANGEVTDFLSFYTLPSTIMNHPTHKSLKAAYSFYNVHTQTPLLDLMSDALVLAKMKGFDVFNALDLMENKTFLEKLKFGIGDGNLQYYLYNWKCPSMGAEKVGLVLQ
Description: NMT1 activity assay (CoA release, fluorescence).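 Also: released CoA from NMT1-catalysed myristoylation of octapeptide substrates detected by fluorescence after reaction with a maleimide coumarin dye (excitation 390 nm, emission 479 nm), triplicate points.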 It is filed as biochemical. The conditions noted are these: octapeptide as NMT1 substrate.

Description for PC3 cells: PC3 cells were treated with vehicle control or 1 μM Filipin for 24 h. The treated cells were visualized under a fluorescence microscope. The treated cells were stained with Filipin III and representative images were taken.
Description for PC3 or DU145 cells: PC3 and DU145 cells were grown overnight. The medium was replaced with the same growth medium but containing EVs/exosome-free FBS with DMSO (control) or Filipin III (0-1 μM) for 24 h to disrupt lipid rafts. The EVs were isolated from the conditioned medium by sequential centrifugation as described above. The isolated EVs and cells were lysed with RIPA buffer for immunoblotting analysis.
Description for full length NMT1 protein: The amount of the released CoA were reacted with 7-diethylamino-3-(4′-maleimidylphenyl)-4-methylcoumarin. The assay was performed in 96-well black microplates. The produced fluorescence intensity was measured by Flex Station 3, and detected by microplate reader (excitation at 390 nm; emission at 479 nm).
The amount of the released CoA were reacted with 7-diethylamino-3-(4′-maleimidylphenyl)-4-methylcoumarin. The assay was performed in 96-well black microplates. The produced fluorescence intensity was measured by Flex Station 3, and detected by microplate reader (excitation at 390 nm; emission at 479 nm). To measure the Km and Vmax of NMT1 which catalyzed various octapeptides substrates derived from various proteins, twenty-five octapeptides were synthesized by GenScript. […] Each data point has three repeats.
Km and Vmax catalyzed by full length NMT1 protein were calculated.

Consider `CCCCC[C@@H](O)[C@H]1C(=O)O[C@H](C)[C@@H](O)/C=C/C=C/C=C/C=C/C=C(\C)[C@@H](O)C[C@H](O)C[C@H](O)C[C@H](O)C[C@H](O)C[C@H](O)C[C@@H]1O` [Filipin III], for which the cholesterol levels entry in the experiment on PC3 cells is “significantly decreased”. Also, the “expression levels of Src kinase in EVs” value with PC3 or DU145 cells is reported as “did not significantly change”.
In the case of “Fyn(C3S/C6S): Fyn mutant with loss of palmitoylation (GSVQSK)”, the “levels of Fyn kinase in EVs” value in experiment [1] is listed as “significantly increased”.
Still for that read-out and setting: to “Fyn(G2A): Fyn mutant with loss of myristoylation (ACVQCK)” belongs “significantly inhibited”.
For the compound Fyn(WT): wild type Fyn kinase (GCVQCK), the “levels of kinase in EVs in comparison with total cell lysate” value in experiment [1] is “decreased”.
With GQSQSGGH (SEQ ID NO: 364) [PSMC1], in the experiment with full length NMT1 protein, the Km amounted to 40 µM and the Vmax amounted to 9.6 µM/min.
The like results for GSCCSCPD (SEQ ID NO: 370) [FRS2] were, in that order, 28.2 µM and 54.7 µM/min.

One may read the Km as the concentration of substrate that gives half-maximal velocity. Broadly, the Vmax is the top rate of the reaction or transport when substrate is in excess.
